{"source": "patent US20190100549A1", "about": "“FLAVONOIDE-TYPE COMPOUNDS BEARING AN O-RHAMNOSYL RESIDUE” (Universitaet Hamburg, priority 2016, published 2019)", "key": {"[1]": {"assay": "Water solubility of naringenin-5-rhamnoside (0.2 μm filtered solutions, HPLC)", "assay_type": "physicochemical", "details": "read-out: maximum water solubility", "method": "FIG. 1: Determination of solubility of naringenin-5-O-α-L-rhamnoside (NR1) in water. Defined concentrations of NR1 were 0.22 μm-filtered before injection to HPLC. Soluble concentrations were calculated from peak areas by determined regression curves.\nFIG. 1 illustrates the amounts of Naringenin-5-rhamnoside recaptured from a RP18 HPLC-column after loading of a 0.2 μm filtered solution containing defined amounts up to 25 mM of the same. Amounts were calculated from a regression curve."}, "[2]": {"system": "normal human epidermal keratinocytes (NHEK)", "assay": "Cytotoxicity on NHEK monolayer cultures (MTT reduction assay and morphological observation)", "assay_type": "cell-based", "details": "for Viability (%): single values, listed as Nar-5-Rha", "method": "To determine the cytotoxicity of flavonoid-5-O-α-L-rhamnosides tests were performed versus their aglycon derivatives in cell monolayer cultures. For this purpose concentrations ranging from 1 μM to 250 μM were chosen. The viability of normal human epidermal keratinocytes (NHEK) was twice evaluated by a MTT reduction assay and morphological observation with a microscope. NHEK were grown at 37° C. and 5% CO2 aeration in Keratinocyte-SFM medium supplemented with epidermal growth factor (EGF) at 0.25 ng/mL, pituitary extract (PE) at 25 μg/mL and gentamycin (25 μg/mL) for 24 h and were used at the 3rd passage. For cytotoxicity testing, pre-incubated NHEK were given fresh culture medium containing a specific concentration of test compound and incubated for 24 h. After a medium change at same test concentration cells were incubated a further 24 h until viability was determined. Test results are given in Table B2 and illustrated in FIG. 10."}, "PGE2": {"system": "PGE2", "assay": "PGE2 release in stimulated NHEK (ELISA)", "assay_type": "cell-based, human", "details": "Homo sapiens, NHEK; PMA 1 μg/ml; 100 μM", "method": "(§1) NHEK were pre-incubated for 24 h with the test compounds. The medium was replaced with the NHEK culture medium containing the inflammatory inducers (PMA or Poly I:C) and incubated for another 24 hours. Positive and negative controls ran in parallel. At the endpoint the culture supernatants were quantified of secreted IL-8, PGE2 and TNF-α by means of ELISA."}, "IL-8": {"system": "IL-8", "assay": "IL-8 release in stimulated NHEK (ELISA)", "assay_type": "cell-based, human", "details": "Homo sapiens, NHEK", "method": "as §1"}, "TNF-α": {"system": "TNF-α", "assay": "TNF-α release in stimulated NHEK (ELISA)", "assay_type": "cell-based, human", "details": "Homo sapiens, NHEK, poly(I:C), read-out: TNFα Inhibition %", "method": "as §1"}, "[3]": {"system": "lipid peroxides (C11-fluor) in NHEK cells", "assay": "Protection against UV-induced lipid peroxide in NHEK (C11-fluor probe, flow cytometry)", "assay_type": "cell-based, human", "method": "Pre-incubated NHEK were incubated with the test compound for 24 h. Then the specific fluorescence probe for the measurement of hydrogen peroxide (DHR) or lipid peroxides (C11-fluor) was added and incubated for 45 min. Irradiation occurred with in H2O2 determination UVB at 180 mJ/cm^2 (+UVA at 2839 mJ/cm^2) or UVB at 240 mJ/cm^2 (+UVA at 3538 mJ/cm^2) in lipid peroxide, respectively, using a SOL500 Sun Simulator lamp. After irradiation the cells were post-incubated for 30 min before flow-cytometry analysis."}}, "note": "“And” between values parts separate entries of the source, which are not always exact repeats. Identical values can stand only once. Like-named read-outs stand apart in the source and are kept apart here.", "data": [{"smiles": "C[C@@H]1O[C@@H](Oc2cc(O)cc3c2C(=O)CC(c2ccc(O)cc2)O3)[C@H](O)[C@H](O)[C@H]1O", "note": "(mixture of isomers) [NR1, Naringenin-5-O-α-L-rhamnoside]", "values": [{"measurement": "solubility", "setting": "[1]; equivalent of 10 mmol/L", "result": "~4200", "unit": "µg/mL"}, {"measurement": "solubility", "setting": "[1]", "result": "~10", "unit": "mM"}, {"measurement": "Viability (%) Mean", "setting": "[2]; 1 μM", "result": 101, "unit": "%"}, {"measurement": "Viability (%)", "setting": "[2]; 1 μM", "result": "91% and 111%"}, {"measurement": "Viability (%) Mean", "setting": "[2]; 2.5 μM", "result": 93, "unit": "%"}, {"measurement": "Viability (%)", "setting": "[2]; 2.5 μM", "result": "92% and 93%"}, {"measurement": "Viability (%) Mean", "setting": "[2]; 5 μM", "result": 86, "unit": "%"}, {"measurement": "Viability (%)", "setting": "[2]; 5 μM", "result": "85% and 88%"}, {"measurement": "Viability (%) Mean", "setting": "[2]; 10 μM", "result": 97, "unit": "%"}, {"measurement": "Viability (%)", "setting": "[2]; 10 μM", "result": "94% and 100%"}, {"measurement": "Viability (%) Mean", "setting": "[2]; 25 μM", "result": 95, "unit": "%"}, {"measurement": "Viability (%)", "setting": "[2]; 25 μM", "result": "92% and 98%"}, {"measurement": "Viability (%) Mean", "setting": "[2]; 50 μM", "result": 84, "unit": "%"}, {"measurement": "Viability (%)", "setting": "[2]; 50 μM", "result": "78% and 91%"}, {"measurement": "Viability (%) Mean", "setting": "[2]; 100 μM", "result": 86, "unit": "%"}, {"measurement": "Viability (%)", "setting": "[2]; 100 μM", "result": "82% and 90%"}, {"measurement": "Viability (%) Mean", "setting": "[2]; 250 μM", "result": 83, "unit": "%"}, {"measurement": "Viability (%)", "setting": "[2]; 250 μM", "result": "79% and 87%"}, {"measurement": "inhibition at 100 µM", "setting": "PGE2", "result": 21, "unit": "%"}, {"measurement": "inhibition at 100 µM", "setting": "IL-8; PMA", "result": 12, "unit": "%"}, {"measurement": "inhibition at 100 µM", "setting": "IL-8; poly(I:C)", "result": 14, "unit": "%"}, {"measurement": "inhibition at 100 µM", "setting": "TNF-α", "result": 8, "unit": "%"}, {"measurement": "anti-oxidative function on lipid peroxides (in words)", "setting": "[3]", "result": "anti-oxidative function"}]}]}
